Measurements from patent publication US5089623A, “Certain imidate insecticides” (Imperial Chemical Industries Plc, priority 1990, dated 1992).

Assays:
Type in all cases: in vivo
[1] = test system: Cabbage Looper [Trichoplusia ni (Hubner)]; assay: Cabbage looper test (CL); conditions: second-instar larvae, 3-5 days, percent in solution
[2] = test system: Tobacco Budworm [Heliothis virescens (Fabricius)] eggs; assay: Tobacco budworm egg test (TBW-E); conditions: percent in solution
[3] = test system: Housefly [Musca domestica]; assay: Housefly insecticidal test (HF); conditions: per 25 female houseflies, 48 hours
[4] = test system: Aster Leafhopper [Macrosteles fascifrens (Stal)]; assay: Aster leafhopper test (LH); conditions: adults/nymphs, 48 hours, percent in solution
[5] = test system: Maize weevil [Sitophilus Zeamais (Motschulsky)]; assay: Maize weevil test (MW); conditions: adult weevils, treated corn seeds, 48 hours, percent in solution
Method in brief: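 Adult weevils (10) were placed with four corn seeds that had been dipped 2-3 s in compound dissolved in 50:50 acetone:water, then dried, and held at about 25° C. Mortality was scored at 48 h. LC50 was taken from dosage-mortality curves and expressed as percent compound in solution, from a 0.01% top concentration.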

Row | SMILES | LC50 CL [1] [%] | LC50 TBW E [2] [%] | LC50 HF [3] [µg] | LC50 LH [4] [%] | LC50 MW [5] [%]
1 | Clc1ccc(N=C(OCc2cccc(Oc3ccccc3)c2)C(Cl)Cl)c2ccccc12 [Compound 98] | 0.016 | 0.1 | > 100 | > 0.05 | 
2 | CC(C)C(=Nc1cc(Cl)c(Cl)c(Cl)c1)OCc1cccc(Oc2ccccc2)c1 [Compound 20] | 0.0025 | < 0.1 | 64 | 0.003 | 
3 | CC(C)C(=Nc1c(F)c(F)cc(F)c1F)OCc1cccc(Oc2ccccc2)c1 [Compound 57] | 0.004 | 0.1 | > 100 | 0.0005 | 
4 | CCc1cccc(N=C(OCc2cccc(Oc3ccccc3)c2)C(C)(C)C)c1 [Compound 162] | 0.035 | > 0.1 | > 100 | > 0.05 | 
5 | CC(C)C(=Nc1ccc(Cl)cc1)OC(C)c1cccc(Oc2ccccc2)c1 (stereo not drawn) [Compound 457] | 0.009 | > 0.05 | > 100 | > 0.05 | 
6 | CCOc1ccc(N=C(OCc2cccc(Oc3ccccc3)c2)C(C)C)cc1Cl [Compound 368] | 0.002 | 0.04 | < 100 |  | > 0.01
7 | CC(C)C(=Nc1cccc(Br)c1)OCc1cccc(Oc2ccc(Cl)cc2)n1 [Compound 557] | 0.0004 | > 0.1 | < 100 |  | > 0.01
8 | CC(C)C(=Nc1cccc(Cl)c1)OCc1ccc(F)c(Oc2ccc(Cl)cc2)c1 [Compound 390] | 0.0021 | 0.045 | < 100 |  | > 0.01
9 | CC(C)C(=Nc1ccc(F)c(Cl)c1F)OCc1ccc(F)c(Oc2ccc(Cl)cc2)c1 [Compound 395] | < 0.1 | 0.018 | 8.6 |  | 0.004
10 | CC(C)C(=Nc1ccc2c(c1)OCO2)OCc1coc(Cc2ccccc2)c1 [Compound 483] | 0.001 | 0.05 | 6 |  | > 0.01
11 | CC(C)C(=Nc1cccc(C(F)(F)F)c1)OCc1coc(Cc2ccccc2)c1 [Compound 482] | 0.01 | > 0.1 | 36 |  | > 0.01
12 | CC(C)C(=Nc1ccc(F)cc1F)OCc1coc(Cc2ccccc2)c1 [Compound 486] | > 0.1 | > 0.1 | 15 |  | > 0.01
13 | CC(C)C(=Nc1ccc(Br)c(Br)c1)OCc1ccc(F)c(Oc2ccccc2)c1 [Compound 384] | > 0.1 | 0.025 | < 100 |  | > 0.01
14 | CC(C)C(=Nc1ccc(F)c(Cl)c1)OCc1cccc(Oc2c(F)c(F)c(F)c(F)c2F)c1 [Compound 460] | 0.02 | > 0.1 | > 100 |  | > 0.01
15 | CCOc1ccc(N=C(OCc2cccc(Oc3ccc(F)cc3)c2)C(C)C)cc1Br [Compound 446] | 0.0008 | < 0.1 | > 100 |  | > 0.01
16 | CC(C)C(=Nc1cccc(C(F)(F)F)c1)OC(C)c1cccc(Oc2ccccc2)c1 (stereo not drawn) [Compound 459] | 0.008 | 0.1 | > 100 |  | > 0.01
17 | CCCc1ccc(N=C(OCc2ccc(F)c(Oc3ccc(F)cc3)c2)C(C)C)cc1 [Compound 440] | 0.002 | < 0.1 | > 100 |  | > 0.01

Row | SMILES | LC50 CL [1] [%] | LC50 TBW E [2] [%] | LC50 HF [3] [µg] | LC50 LH [4] [%] | LC50 MW [5] [%]
18 | CC(C)C(=Nc1ccc(F)c(I)c1)OCc1cccc(Oc2ccc(Cl)cc2)c1 [Compound 413] | 0.0007 | 0.04 | < 100 |  | > 0.01
19 | CC(C)C(=Nc1ccc(Cl)c(C(F)(F)F)c1)OCc1ccc(F)c(Oc2ccc(F)cc2)c1 [Compound 340] | 0.00037 | 0.04 | 34 |  | 0.0069
20 | CCOc1ccc(N=C(OCc2ccc(F)c(Oc3ccc(Cl)cc3)c2)C(C)C)cc1 [Compound 372] | > 0.1 | > 0.1 | > 100 |  | > 0.01
21 | CC(C)C(=Nc1ccc(Cl)c(C(F)(F)F)c1)OCc1cccc(Oc2ccccc2)n1 [Compound 555] | 0.002 | > 0.1 | < 100 |  | > 0.01
22 | CC(C)C(=Nc1ccc(C(F)(F)F)cc1)OCc1cccc(Oc2ccccc2)n1 [Compound 504] | 0.00025 | 0.05 | < 100 |  | 0.01
23 | Cc1ccc(Oc2cccc(COC(=Nc3ccc(C(C)(C)C)cc3)C(C)C)c2)cc1 [Compound 344] | 0.024 | > 0.1 | > 100 |  | > 0.01
24 | CC(C)C(=Nc1ccc(OC(F)(F)C(F)Cl)cc1)OCc1cccc(Oc2ccccc2)c1 (stereo not drawn) [Compound 418] | > 0.1 | > 0.1 | > 100 |  | > 0.01
25 | COCc1c(F)c(F)c(COC(=Nc2ccc(F)c(Cl)c2)C(C)C)c(F)c1F [Compound 505] | 0.0024 | 0.09 | 14 |  | > 0.01
26 | CC(C)C(=Nc1ccc2c(c1)OC(F)(F)O2)OCc1cccc(Oc2ccccc2)n1 [Compound 556] | 0.0007 | 0.04 | < 100 |  | > 0.01
27 | Fc1ccc(COC(=Nc2ccc(C(F)(F)F)cc2)C2CC2)cc1Oc1ccc(Cl)cc1 [Compound 444] | 0.00015 | 0.023 | > 100 |  | > 0.01
28 | CC(C)C(=Nc1ccc(I)c(Cl)c1)OCc1ccc(F)c(Oc2ccc(F)cc2)c1 [Compound 385] | > 0.1 | > 0.1 | < 100 |  | > 0.01
29 | CCOc1cccc(N=C(OCc2ccc(F)c(Oc3ccc(F)cc3)c2)C(C)C)c1 [Compound 426] | 0.002 | > 0.1 | > 100 |  | > 0.01
30 | COc1ccc(N=C(OCc2ccc(F)c(Oc3ccc(Cl)cc3)c2)C(C)C)cc1Cl [Compound 410] | > 0.1 | > 0.1 | < 100 |  | > 0.01
31 | CC(C)C(=Nc1ccc(Cl)c(C(F)(F)F)c1)OCc1ccc(F)c(Oc2ccccc2)c1 [Compound 388] | 0.0012 | > 0.1 | < 100 |  | > 0.01
32 | CCOc1ccc(N=C(OCc2ccc(F)c(Oc3ccccc3)c2)C(C)C)cc1F [Compound 439] | 0.00045 | > 0.1 | > 100 |  | > 0.01
33 | Cc1cccc(N=C(OCc2ccc(F)c(Oc3ccc(Cl)cc3)c2)C(C)C)c1 [Compound 401] | 0.0017 | 0.04 | < 100 |  | > 0.01
